These results are taken from PubChem BioAssay AID256 (DTP/NCI, 2004).

The structures appear in SMILES notation. Several values for one entry are separate records, joined by “and”; a condition that tells them apart may be missing. Identical values can stand only once. Toxic doses and inconclusive results are not listed.

The subject of this assay is CD2F1 mice, L1210 leukemia ip, survival T/C. Nature of the assay: NCI In Vivo Anticancer Drug Screen. Data for tumor model L1210 Leukemia (intraperitoneal) in CD2F1 (CDF1) mice. The conditions noted are these: higher = longer survival. The gist of the method: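 In this screen, transplantable tumors were grown in mice given either the compound or its vehicle. Results were expressed as the treated measurement relative to the control measurement.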

[1] abbreviates: endpoint: mean survival time, dose: 100.0 mg/kg/injection, schedule: Q01DX001 (ip), vehicle: saline with Tween-80.
Where [2] appears, read: endpoint: mean survival time, dose: 200.0 mg/kg/injection, schedule: Q01DX001 (ip), vehicle: saline with Tween-80.
The mark [3] stands for this setting: endpoint: mean survival time, dose: 100.0 mg/kg/injection, schedule: Q01DX009 (ip), vehicle: saline.
The mark [4] stands for this setting: endpoint: mean survival time, dose: 100.0 mg/kg/injection, schedule: Q04DX003 (ip), vehicle: saline with Tween-80.
[5] abbreviates: endpoint: mean survival time, dose: 200.0 mg/kg/injection, schedule: Q04DX003 (ip), vehicle: saline with Tween-80.
The mark [6] stands for this setting: endpoint: mean survival time, dose: 400.0 mg/kg/injection, schedule: Q04DX003 (ip), vehicle: saline with Tween-80.
[7] abbreviates: endpoint: mean survival time, dose: 25.0 mg/kg/injection, schedule: Q01DX009 (ip), vehicle: saline.
[8] abbreviates: endpoint: mean survival time, dose: 50.0 mg/kg/injection, schedule: Q01DX009 (ip), vehicle: saline.
[9] abbreviates: endpoint: mean survival time, dose: 12.5 mg/kg/injection, schedule: Q01DX001 (ip), vehicle: saline.
The mark [10] stands for this setting: endpoint: mean survival time, dose: 100.0 mg/kg/injection, schedule: Q01DX009 (ip), vehicle: saline with Tween-80.
[11] abbreviates: endpoint: mean survival time, dose: 200.0 mg/kg/injection, schedule: Q01DX009 (ip), vehicle: saline with Tween-80.
[12] abbreviates: endpoint: mean survival time, dose: 400.0 mg/kg/injection, schedule: Q01DX009 (ip), vehicle: saline with Tween-80.

For the compound `Nc1nc(Br)nc2c1ncn2C1CC(O)C(CO)O1` (stereo not given), the T/C is 120 % of control (endpoint: median survival time, dose: 3.8 mg/kg/injection, schedule: Q03HX009 (ip), vehicle: saline); 152 % of control (endpoint: median survival time, dose: 10.0 mg/kg/injection, schedule: Q03HX024 (ip), vehicle: saline); 163 % of control (endpoint: median survival time, dose: 15.0 mg/kg/injection, schedule: Q03HX009 (ip), vehicle: water); 164 % of control and 174 % of control (endpoint: median survival time, dose: 20.0 mg/kg/injection, schedule: Q03HX024 (ip), vehicle: saline); 195 % of control (endpoint: median survival time, dose: 30.0 mg/kg/injection, schedule: Q03HX009 (ip), vehicle: suspension in saline); 237 % of control (endpoint: median survival time, dose: 30.0 mg/kg/injection, schedule: Q03HX009 (ip), vehicle: water). In addition, the T/C is, setting by setting: (endpoint: median survival time, dose: 30.0 mg/kg/injection, schedule: Q03HX024 (ip), vehicle: saline) 329 % of control; (endpoint: median survival time, dose: 40.0 mg/kg/injection, schedule: Q03HX024 (ip), vehicle: saline) 728 % of control; (endpoint: median survival time, dose: 53.0 mg/kg/injection, schedule: Q03DX003 (ip), vehicle: saline) 121 % of control; (endpoint: median survival time, dose: 60.0 mg/kg/injection, schedule: Q03HX009 (ip), vehicle: suspension in saline) 243 % of control; (endpoint: median survival time, dose: 60.0 mg/kg/injection, schedule: Q03HX009 (ip), vehicle: water) 221 % of control; (endpoint: median survival time, dose: 80.0 mg/kg/injection, schedule: Q03DX003 (ip), vehicle: saline) 118 % of control. Besides, the T/C is, setting by setting: (endpoint: median survival time, dose: 120.0 mg/kg/injection, schedule: Q03DX003 (ip), vehicle: saline) 122 % of control; (endpoint: median survival time, dose: 120.0 mg/kg/injection, schedule: Q03HX009 (ip), vehicle: suspension in saline) 193 % of control.

Take `OC1C=C(c2ccccc2)C(c2ccccc2)C(c2ccccc2)C1` (stereo not given): the T/C by setting is: under setting [1], 89 % of control; (endpoint: mean survival time, dose: 400.0 mg/kg/injection, schedule: Q01DX001 (ip), vehicle: saline with Tween-80) 101 % of control.

In the case of `O=[N+]([O-])O.[Er]`, the T/C reads like this: (endpoint: mean survival time, dose: 25.0 mg/kg/injection, schedule: Q04DX003 (ip), vehicle: saline) 96 % of control; (endpoint: mean survival time, dose: 50.0 mg/kg/injection, schedule: Q04DX003 (ip), vehicle: saline) 87 % of control; (endpoint: mean survival time, dose: 100.0 mg/kg/injection, schedule: Q04DX003 (ip), vehicle: saline) 87 % of control.

For the compound `COC1=C(OC)C(=O)C(N(C)C)=C(CO)C1=O`, the T/C is 102 % of control (endpoint: median survival time, dose: 15.0 mg/kg/injection, schedule: Q01DX005 (ip), vehicle: saline); 100 % of control (endpoint: median survival time, dose: 30.0 mg/kg/injection, schedule: Q01DX005 (ip), vehicle: saline); 103 % of control (endpoint: median survival time, dose: 60.0 mg/kg/injection, schedule: Q01DX005 (ip), vehicle: saline); 107 % of control (endpoint: median survival time, dose: 120.0 mg/kg/injection, schedule: Q01DX005 (ip), vehicle: saline).

Turning to `S=C(Cc1ccccc1)N1CCOCC1`, the T/C is, setting by setting: under setting [1], 98 % of control; under setting [2], 102 % of control; (endpoint: mean survival time, dose: 300.0 mg/kg/injection, schedule: Q01DX001 (ip), vehicle: saline with Tween-80) 101 % of control.

With `CC1COC(=O)O1` (stereo not given), the T/C reads like this: under setting [3], 101 % of control; under setting [4], 97 % of control; (endpoint: mean survival time, dose: 200.0 mg/kg/injection, schedule: Q01DX009 (ip), vehicle: saline) 98 % of control; under setting [5], 97 % of control; (endpoint: mean survival time, dose: 400.0 mg/kg/injection, schedule: Q01DX009 (ip), vehicle: saline) 101 % of control; under setting [6], 96 % of control.

With `Nc1nc([Se]Cc2ccc([N+](=O)[O-])cc2)c2ncn(C3OC(CO)C(O)C3O)c2n1` (stereo not given), the T/C was 111 % of control under setting [7], 119 % of control under setting [8] and 100 % of control under setting [3].

As to `C1CCC2[N-]CC3CCCCC3[N-]CC3CCCCC3[N-]CC3CCCCC3[N-]CC2C1.[Cu]` (stereo not given), the T/C (endpoint: mean survival time, dose: 0.39 mg/kg/injection, schedule: Q01DX009 (ip), vehicle: saline) is 118 % of control; the T/C (endpoint: mean survival time, dose: 0.78 mg/kg/injection, schedule: Q01DX009 (ip), vehicle: saline) was 116 % of control; the T/C (endpoint: mean survival time, dose: 1.56 mg/kg/injection, schedule: Q01DX009 (ip), vehicle: saline) was 104 % of control; the T/C (endpoint: mean survival time, dose: 3.12 mg/kg/injection, schedule: Q01DX009 (ip), vehicle: saline) was 118 % of control; the T/C (endpoint: mean survival time, dose: 6.25 mg/kg/injection, schedule: Q01DX009 (ip), vehicle: saline) is 119 % of control.

For the compound `CCOC(C)C(O)(c1ccc(N(C)C)cc1)c1ccc(N(C)C)cc1` (stereo not given), the T/C (endpoint: mean survival time, dose: 100.0 mg/kg/injection, schedule: Q04DX003 (ip), vehicle: other) is 95 % of control; the T/C (endpoint: mean survival time, dose: 200.0 mg/kg/injection, schedule: Q04DX003 (ip), vehicle: other) was 91 % of control; the T/C (endpoint: mean survival time, dose: 400.0 mg/kg/injection, schedule: Q04DX003 (ip), vehicle: other) was 97 % of control.

As for `Nc1nc(N)c(-c2ccc(Cl)cc2)c(CBr)n1`, the T/C is, setting by setting: (endpoint: mean survival time, dose: 6.25 mg/kg/injection, schedule: Q01DX001 (ip), vehicle: saline) 95 % of control; under setting [9], 98 % of control; (endpoint: mean survival time, dose: 25.0 mg/kg/injection, schedule: Q01DX001 (ip), vehicle: saline with Tween-80) 106 % of control; (endpoint: mean survival time, dose: 25.0 mg/kg/injection, schedule: Q01DX001 (ip), vehicle: saline) 98 % of control; (endpoint: mean survival time, dose: 50.0 mg/kg/injection, schedule: Q01DX001 (ip), vehicle: saline with Tween-80) 95 % of control; under setting [1], 102 % of control and 110 % of control.

For `Cc1cc(=O)[nH]c(N/N=C/c2ccc(N(C)C)cc2)n1`, the T/C under setting [10] was 91 % of control; the T/C under setting [4] is 104 % of control; the T/C under setting [11] was 88 % of control; the T/C under setting [5] is 95 % of control; the T/C under setting [12] was 86 % of control; the T/C under setting [6] was 92 % of control.

As for `CN(CCCOS(C)(=O)=O)CCCOS(C)(=O)=O`, the T/C by setting is: (endpoint: mean survival time, dose: 6.3 mg/kg/injection, schedule: Q01DX009 (ip), vehicle: saline) 123 % of control; (endpoint: mean survival time, dose: 6.3 mg/kg/injection, schedule: Q04DX003 (ip), vehicle: saline) 117 % of control and 119 % of control and 109 % of control; (endpoint: mean survival time, dose: 8.4 mg/kg/injection, schedule: Q01DX009 (oral), vehicle: saline) 104 % of control; under setting [9], 108 % of control; (endpoint: mean survival time, dose: 39.0 mg/kg/injection, schedule: Q01DX009 (oral), vehicle: saline) 121 % of control; (endpoint: mean survival time, dose: 65.0 mg/kg/injection, schedule: Q01DX001 (oral), vehicle: saline) 104 % of control. The T/C is, setting by setting: under setting [3], 87 % of control and 105 % of control and 93 % of control; (endpoint: mean survival time, dose: 108.0 mg/kg/injection, schedule: Q01DX001 (oral), vehicle: saline) 102 % of control; (endpoint: mean survival time, dose: 200.0 mg/kg/injection, schedule: Q01DX001 (ip), vehicle: saline) 118 % of control; (endpoint: mean survival time, dose: 200.0 mg/kg/injection, schedule: Q04DX003 (ip), vehicle: saline) 87 % of control and 88 % of control; (endpoint: mean survival time, dose: 300.0 mg/kg/injection, schedule: Q01DX001 (oral), vehicle: saline) 114 % of control.

On to `CCOC(=O)Nc1cc(NCCCCc2ccccc2)c(N)c(N)n1`, for which the T/C under setting [1] is 102 % of control and the T/C under setting [2] is 109 % of control.

Consider `C[N+](C)(C)CC(=O)N/N=C\c1c(O)ccc2ccccc12`, for which the T/C under setting [4] is 97 % of control.

As to `CN(C)/C=N/NC(=O)C(O)c1ccccc1` (stereo not given), the T/C reads like this: under setting [10], 102 % of control; under setting [11], 102 % of control; under setting [12], 100 % of control.

Take `CC(c1ccc([N+](=O)[O-])cc1)C(O)c1ccccc1` (stereo not given): the T/C was 111 % of control under setting [4], 103 % of control under setting [5] and 102 % of control under setting [6].

In the case of `NCCCCC1(CCCCN)OCCO1`, the T/C by setting is: under setting [7], 95 % of control; (endpoint: mean survival time, dose: 25.0 mg/kg/injection, schedule: Q04DX002 (ip), vehicle: saline) 102 % of control; under setting [8], 102 % of control; (endpoint: mean survival time, dose: 50.0 mg/kg/injection, schedule: Q04DX002 (ip), vehicle: saline) 95 % of control; under setting [1], 94 % of control.
